Laboratory results taken from patent US7459284B2, “Chemiluminescent acridinium compounds and analogues thereof as substrates of hydrolytic enzymes” (Siemens Healthcare Diagnostics Inc., priority 1999, dated 2008).

Experiments:
[1] = Light emission spectra by Fast Spectral Scanning System (FSSS); format: physicochemical
Experimental: The light emission spectra of compounds 1˜12 and 15˜18 were determined by a Fast Spectral Scanning System (FSSS) of Photo Research (a division of Kollmorgen Corp.) of Burbank, Calif., U.S.A. The experiment was carried out in a dark room. Each compound was dissolved in acetonitrile or N,N-dimethylformamide. The resulting concentrate was diluted with the same solvent to form the working solution, which upon flashing gave a light emission with an adequate intensity. A typical experiment utilized 10˜100 μg or more of the sample in 500 μl of the solvent contained in a 13×100 mm borosilicate test tube. The tube was placed on a test tube rack raised to a proper height. A piece of aluminum foil was placed on the back of the tube to enhance the detectability of the emitted light. The FSSS optical head was placed in front of the tube at an approximate distance of about 130 mm with its lens focused on the liquid in the tube. The sample solution was first treated with 0.35 ml of the Flashing Reagent #1 (Bayer Diagnostics) containing 0.1 N HNO3 and 0.5% H2O2. The room was then darkened, and 0.35 ml of the Flashing Reagent #2 (Bayer Diagnostics) containing 0.25 N NaOH and 0.5% ARQUAD was added to the reaction mixture immediately. (See U.S. Pat. No. 4,927,769, which is commonly assigned and incorporated herein by reference.) The light which was generated instantaneously following the addition of the Reagent #2 was recorded by FSSS for 5 seconds starting from about one second before the Reagent #2 was added.

alkaline phosphatase [2] = biological target: T1, alkaline phosphatase (Bos taurus, UniProt P19111); experiment: Enzymatic conversion of substrate by alkaline phosphatase (HPLC analysis); format: biochemical; settings: alkaline aqueous medium; about 1 hour
Experimental: A 1 mM DMF solution of the acridinium 3-enol-phosphate (13) was mixed with 150 μL of 100 mM Tris pH 9 also containing 1 mM MgCl2. Alkaline phosphatase (5 μl of a 2 mg/ml solution) was added and the reaction was incubated at room temperature for ˜1 hour. […] The product was isolated by semi-preparative HPLC using a 7.8×300 mm, C18 column. MALDI-TOF MS of the product indicated this was indeed the keto product (14): m/z 521.36 obs. (520.56 calc.).
A 20 μL DMF solution of the acridan (15) (1.7 mM) was combined with 180 μl of 0.15 M 2-amino-2-methyl-1-propanol pH 10.3 also containing 1 mM magnesium acetate. A clear blue solution was obtained (0.17 mM substrate), which was then treated with alkaline phosphatase (10^−10 moles). The blue color was discharged instantly. […] The reaction mixture was then evaluated by the FSSS to determine the light emission spectrum of the product, which is shown in FIG. 2N. The product was isolated by semi-preparative HPLC. […] (521.56 calc.).

alkaline phosphatase [3] = biological target: T1, alkaline phosphatase; experiment: Alkaline phosphatase assay using 4′-Phos-AE (17) as chemiluminescent substrate; format: biochemical; settings: 0.1 mM substrate, pH 9 Tris, 3-4 hours room temperature; 0.1 ml reaction volume; measuring time 0.3 s
Experimental: Treatment of a solution of 4′-Phos-AE (17, 0.1 mM,) in 100 mM Tris pH 9, 1 mM MgCl2 with varying concentrations of alkaline phosphatase was carried out. The reactions were incubated for 3-4 hours at room temperature and were then sequentially diluted 10^4-fold into ‘flash buffer’ which contains 10 mM phosphate pH 8 with 150 mM NaCl, 0.1% BSA and 0.05% sodium azide. Chemiluminescence of a 25 μL solution was measured on a Bayer Diagnostics' Magic Lite Ananlyzer (MAL1) equipped with a BG38 filter. A measuring time of 0.3 s was employed. Evaluation of the chemiluminescent activity of the reactions indicated a steady decrease in total chemiluminesence with increasing concentrations of enzyme. Thus, as the concentration of enzyme is increased, a greater proportion of the fast-emitting substrate 4′-Phos-AE is converted to the slow-emitting product 4′-OH-AE (18) leading to an overall decrease in light output (at a short measuring time). Alkaline phosphatase was easily detected at 5×10^−17 moles (0.1 ml reaction volume) in this assay.

[4] = Light emission kinetics of substrate vs product; format: physicochemical; settings: short measuring times (0.5-0.3 s)
Excerpt: One of the more preferred chemiluminescent acridinium substrates of Formula XIII is compound 4′-Phos-AE (17).

T1 sequence (P19111 20-506): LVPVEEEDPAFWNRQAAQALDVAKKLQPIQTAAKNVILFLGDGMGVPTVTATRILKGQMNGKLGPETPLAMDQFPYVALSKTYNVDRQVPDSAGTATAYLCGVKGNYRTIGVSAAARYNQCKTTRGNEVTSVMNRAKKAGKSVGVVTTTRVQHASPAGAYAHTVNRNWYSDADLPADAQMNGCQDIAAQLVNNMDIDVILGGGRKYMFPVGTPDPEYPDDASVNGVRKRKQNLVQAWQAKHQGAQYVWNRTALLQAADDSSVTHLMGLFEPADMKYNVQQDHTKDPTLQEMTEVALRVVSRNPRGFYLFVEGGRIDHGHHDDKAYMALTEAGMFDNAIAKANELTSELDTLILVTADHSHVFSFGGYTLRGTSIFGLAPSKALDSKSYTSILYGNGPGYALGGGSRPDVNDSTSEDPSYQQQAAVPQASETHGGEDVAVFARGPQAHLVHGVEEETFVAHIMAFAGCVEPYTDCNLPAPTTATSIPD

C[n+]1c2ccccc2c(C(=O)Oc2ccc(OP(=O)(O)O)cc2)c2ccccc21 [Compound 17, 4′-phosphophenyl 10-methyl acridinium-9-carboxylate trifluoromethanesulfonate]
Emission Maximum ([1]; FSSS, hydrogen peroxide in strong alkaline solution): 436 nm | Emission Range ([1]; spectral region with signal intensity above 5% of peak height, FSSS scanning limit 380-780 nm, flashed with 0.1 N HNO3/0.5% H2O2 then 0.25 N NaOH/0.5% ARQUAD): 410-540 nm | conversion by alkaline phosphatase (alkaline phosphatase [2]): readily converted | level of alkaline phosphatase detected (alkaline phosphatase [3]): 5e-17 mol | speed of light emission relative to product 18 [4]: ~190 times
